What all share (test): relative viability (nuclei count vs DMSO), 5 days (fraction); higher = more cells survive
Compound in the test “Adavosertib + Lapatinib”: C=CCn1c(=O)c2cnc(Nc3ccc(N4CCN(C)CC4)cc3)nc2n1-c1cccc(C(C)(C)O)n1 [Adavosertib] + CS(=O)(=O)CCNCc1ccc(-c2ccc3ncnc(Nc4ccc(OCc5cccc(F)c5)c(Cl)c4)c3c2)o1 [Lapatinib] (partner 2 µM)
In outline:
(§1)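 Relative viability divides the nuclei count in treated wells by that in vehicle wells. Lung cancer cell lines were seeded in 1536-well plates, dosed by pin tool the next day, and fixed and stained after 5 days in one step with final 0.05% Triton X-100, 1% formaldehyde and 1 ug/ml Hoechst. Dosing was a single drug or a fixed anchor-drug dose plus five library-drug doses (not always all listed) in √10 steps, and values are medians of duplicate plates imaged at 4×.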

Compound in the test “Adavosertib + Foretinib”: C=CCn1c(=O)c2cnc(Nc3ccc(N4CCN(C)CC4)cc3)nc2n1-c1cccc(C(C)(C)O)n1 [Adavosertib] + COc1cc2c(Oc3ccc(NC(=O)C4(C(=O)Nc5ccc(F)cc5)CC4)cc3F)ccnc2cc1OCCCN1CCOCC1 [Foretinib] (partner 0.25 µM)
In outline:
as §1

Compound in the test “Nelarabine + OSI-027”: COc1nc(N)nc2c1ncn2[C@@H]1O[C@H](CO)[C@@H](O)[C@@H]1O [Nelarabine] + COc1cccc2cc(-c3nc([C@H]4CC[C@H](C(=O)O)CC4)n4ncnc(N)c34)[nH]c12 [OSI-027] (partner 0.5 µM)
In outline:
as §1

Compound in the test “Nelarabine + Olaparib”: COc1nc(N)nc2c1ncn2[C@@H]1O[C@H](CO)[C@@H](O)[C@@H]1O [Nelarabine] + O=C(c1cc(Cc2n[nH]c(=O)c3ccccc23)ccc1F)N1CCN(C(=O)C2CC2)CC1 [Olaparib] (partner 8 µM)
In outline: as §1

For NCI-H23, the relative viability with Adavosertib + Lapatinib (first compound 0.01 µM) is 0.935; with Adavosertib + Lapatinib (first compound 0.03162 µM) it was 1.25; with Adavosertib + Lapatinib (first compound 0.1 µM) it was 0.855; in the test with Adavosertib + Lapatinib (first compound 0.3162 µM) it was 0.328; with Adavosertib + Foretinib (first compound 0.01 µM), 1.04; with Adavosertib + Foretinib (first compound 0.03162 µM), 0.891. In addition, the relative viability with Adavosertib + Foretinib (first compound 0.1 µM) worked out at 0.75; with Adavosertib + Foretinib (first compound 0.3162 µM), 0.261; in the test with Nelarabine + OSI-027 (first compound 0.01 µM), 0.686; with Nelarabine + OSI-027 (first compound 0.03162 µM), 0.504; with Nelarabine + OSI-027 (first compound 0.1 µM), 0.512; in the test with Nelarabine + OSI-027 (first compound 0.3162 µM) it was 0.738. In addition, the relative viability is 0.62 with Nelarabine + OSI-027 (first compound 1 µM); 0.32 with Nelarabine + Olaparib (first compound 0.01 µM); 0.235 with Nelarabine + Olaparib (first compound 0.03162 µM); 0.294 with Nelarabine + Olaparib (first compound 0.1 µM); 0.33 with Nelarabine + Olaparib (first compound 0.3162 µM); 0.335 with Nelarabine + Olaparib (first compound 1 µM).

Take EKVX: the relative viability in the test with Adavosertib + Lapatinib (first compound 0.01 µM) was found to be 0.216; with Adavosertib + Lapatinib (first compound 0.03162 µM) it was 0.233; in the test with Adavosertib + Lapatinib (first compound 0.1 µM) it was 0.201; with Adavosertib + Lapatinib (first compound 0.3162 µM), 0.225; in the test with Adavosertib + Foretinib (first compound 0.01 µM), 0.743; in the test with Adavosertib + Foretinib (first compound 0.03162 µM) it was 1.15. The relative viability in the test with Adavosertib + Foretinib (first compound 0.1 µM) was 0.755; with Adavosertib + Foretinib (first compound 0.3162 µM), 0.748; with Nelarabine + OSI-027 (first compound 0.01 µM), 0.797; in the test with Nelarabine + OSI-027 (first compound 0.03162 µM), 0.661; with Nelarabine + OSI-027 (first compound 0.1 µM), 0.652; with Nelarabine + OSI-027 (first compound 0.3162 µM), 0.729. In addition, the relative viability with Nelarabine + OSI-027 (first compound 1 µM) came to 0.685; with Nelarabine + Olaparib (first compound 0.01 µM), 1.11; in the test with Nelarabine + Olaparib (first compound 0.03162 µM) it was 0.852; in the test with Nelarabine + Olaparib (first compound 0.1 µM), 0.817; with Nelarabine + Olaparib (first compound 0.3162 µM), 0.775; with Nelarabine + Olaparib (first compound 1 µM), 0.866.

With NCI-H1915, the relative viability in the test with Adavosertib + Lapatinib (first compound 0.01 µM) was found to be 0.984; in the test with Adavosertib + Lapatinib (first compound 0.03162 µM), 0.923; in the test with Adavosertib + Lapatinib (first compound 0.1 µM), 1.02; with Adavosertib + Lapatinib (first compound 0.3162 µM), 0.959; with Adavosertib + Foretinib (first compound 0.01 µM), 1.14; with Adavosertib + Foretinib (first compound 0.03162 µM) it was 1.03. Moreover, the relative viability turned out to be 1.2 with Adavosertib + Foretinib (first compound 0.1 µM); 1.14 with Adavosertib + Foretinib (first compound 0.3162 µM); 0.675 with Nelarabine + OSI-027 (first compound 0.01 µM); 0.666 with Nelarabine + OSI-027 (first compound 0.03162 µM); 0.678 with Nelarabine + OSI-027 (first compound 0.1 µM); 0.706 with Nelarabine + OSI-027 (first compound 0.3162 µM). Also, the relative viability with Nelarabine + OSI-027 (first compound 1 µM) stood at 0.684; with Nelarabine + Olaparib (first compound 0.01 µM), 0.25; in the test with Nelarabine + Olaparib (first compound 0.03162 µM) it was 0.264; with Nelarabine + Olaparib (first compound 0.1 µM) it was 0.261; in the test with Nelarabine + Olaparib (first compound 0.3162 µM) it was 0.251; with Nelarabine + Olaparib (first compound 1 µM) it was 0.24.

In the case of LU99A, the relative viability with Adavosertib + Lapatinib (first compound 0.01 µM) was determined as 1.02; with Adavosertib + Lapatinib (first compound 0.03162 µM), 0.96; with Adavosertib + Lapatinib (first compound 0.1 µM) it was 0.956; in the test with Adavosertib + Lapatinib (first compound 0.3162 µM) it was 0.639; with Adavosertib + Foretinib (first compound 0.01 µM) it was 0.86; in the test with Adavosertib + Foretinib (first compound 0.03162 µM), 0.779. Moreover, the relative viability amounted to 0.771 with Adavosertib + Foretinib (first compound 0.1 µM); 0.579 with Adavosertib + Foretinib (first compound 0.3162 µM); 0.315 with Nelarabine + OSI-027 (first compound 0.01 µM); 0.295 in the test with Nelarabine + OSI-027 (first compound 0.03162 µM); 0.307 with Nelarabine + OSI-027 (first compound 0.1 µM); 0.309 in the test with Nelarabine + OSI-027 (first compound 0.3162 µM). Also, the relative viability came to 0.291 in the test with Nelarabine + OSI-027 (first compound 1 µM); 0.276 with Nelarabine + Olaparib (first compound 0.01 µM); 0.239 with Nelarabine + Olaparib (first compound 0.03162 µM); 0.252 in the test with Nelarabine + Olaparib (first compound 0.1 µM); 0.249 with Nelarabine + Olaparib (first compound 0.3162 µM); 0.26 in the test with Nelarabine + Olaparib (first compound 1 µM).

In the case of LK-2, the relative viability with Adavosertib + Lapatinib (first compound 0.01 µM) is 0.866; with Adavosertib + Lapatinib (first compound 0.03162 µM), 1.05; with Adavosertib + Lapatinib (first compound 0.1 µM), 1.01; with Adavosertib + Lapatinib (first compound 0.3162 µM), 0.97; with Adavosertib + Foretinib (first compound 0.01 µM), 1.16; in the test with Adavosertib + Foretinib (first compound 0.03162 µM), 1.21. The relative viability with Adavosertib + Foretinib (first compound 0.1 µM) worked out at 1.64; with Adavosertib + Foretinib (first compound 0.3162 µM) it was 1.14; with Nelarabine + OSI-027 (first compound 0.01 µM) it was 0.167; with Nelarabine + OSI-027 (first compound 0.1 µM), 0.159; with Nelarabine + OSI-027 (first compound 0.3162 µM) it was 0.178; with Nelarabine + OSI-027 (first compound 1 µM) it was 0.162. The relative viability in the test with Nelarabine + Olaparib (first compound 0.01 µM) was 0.689; with Nelarabine + Olaparib (first compound 0.1 µM), 0.701; with Nelarabine + Olaparib (first compound 0.3162 µM) it was 0.601; with Nelarabine + Olaparib (first compound 1 µM), 0.635.

Values taken from the supplement of paper PMC10307832.
